# Measured values from US6605115B1, “Method and composition for inhibiting cardiovascular cell proliferation” (Board of Trustees of the Leland Stanford Junior University, priority 1999, dated 2003).
# Experiments:
# cytokine-stimulated VSMC [1] = experiment: Effect of arginine oligomers on NO production in cytokine-stimulated VSMC (NO2, Griess); type: cell-based, rat
# Experimental: (§1) Rat VSMCs were prepared from the media layer of thoracic aorta of Sprague-Dawley rats by the explant method. The cells were cultured in Dulbecco's modified Eagle's medium (DMEM, Gibco BRL, Gaithersburg, Md.) containing 10% fetal calf serum, 100 U/ml penicillin and 100 μg/ml streptomycin at 37° C. under a humidified atmosphere containing 5% CO2. After subconfluent growth, cells were cultured with MEM Select Amine Kit (Gibco BRL, Gaithersburg, Md.) to be treated by specific concentrations of extracellular free L-arginine. Experiments were performed using cultured cells at passage levels of 5-10.
# (§2) Extracellular NO production was measured as its stable oxidative metabolite, nitrite (NO2). At the end of each incubation, samples of the medium (80 μl) were collected, and NO2 measurement was performed using the Griess reaction facilitated by a commercial calorimetric assay (Cayman Chemical, Ann Arbor, Mich.). Values of NO2 production were corrected with relative cell count assessed by a cell proliferation kit II (XTT) (Boeheringer Mannheim, Germany).
# Subconfluent cells were pre-incubated with medium containing 100 μM arginine for 24 hours. The cells were then transiently pretreated with each arginine polymer for 30 minutes. After translocation, the cells were incubated with a mixture of IFN-γ (100 U/ml) and LPS (100 μg/ml) in medium containing 100 μM L-arginine for another 24 hours. In some experiments, L-NMMA (1 mM), a nitric oxide synthase inhibitor, was added to the medium.
# cytokine-stimulated VSMC [2] = experiment: as above; type: cell-based, rat; conditions: exposure 5 minutes; observed for 24 hours; free L-arginine at 1 mM
# [3] = tested on: human umbilical vein endothelial cells (ECV304); experiment: In vitro translocation of biotin-labeled peptides into endothelial cells; type: cell-based; conditions: VSMC and endothelial cells in culture
# Experimental: Spontaneously transformed human umbilical vein endothelial cells (ECV304, ATCC) were cultured in medium M199 (Irvine Scientific) containing 10% fetal bovine serum (FBS), 100 IU/ml penicillin and 100 μg/ml of streptomycin (Gibco BRL). Confluent cells were washed and placed in serum-free medium. After 2 hours, the cells were incubated in presence of biotin labeled peptides, as bL-R7, or bD-R7, or bL-K7 (0.1, 1.0, and 10.0 μM). After 30 minutes of incubation, cells were washed 3 times with phosphate-buffered saline (PBS), fixed in ethanol/acetone; washed in PBS; incubated for 30 minutes with peroxidase suppressor (ImmunoPure, Pierce) to block endogenous peroxidase activity; and then incubated with 5 μg/ml of horse-radish peroxidase (HRP) conjugated strepavidin (Pierce) for 30 minutes. Substrate of HRP, diaminobenzidine (DAB, Sigma), was added to the cells. The reaction was terminated by washing in distilled water after a 60-second incubation. This experiment was repeated 3 times.
# vein grafts = experiment: Vein graft model: vessel morphometry 28 days after surgery; type: in vivo, New Zealand white rabbits
# Experimental: Male New Zealand white rabbits (3.0-3.5 kg) fed standard diets were anesthetized with a mixture of ketamine (40 mg/kg) and xylazine (5 mg/kg) intramuscularly. The left external jugular vein was exposed through a longitudinal neck incision. The jugular vein was excised, gently flushed and immersed in PBS (control) or PBS containing either L-R7 (10.0 μM) or D-r7 (10.0 μM) for 30 minutes.
# The right common carotid artery was exposed and clamped at the both proximal and distal ends. The treated vein segment was washed with PBS and then anastomosed in a reverse end-to-side fashion into the carotid artery, using continuous 8-0 polypropylene sutures. The common carotid artery was ligated and dissected between the two anastomoses, and the wound was closed with 3-0 nylon suture.
# Vein graft segments were harvested on the 28th surgical day. Graft segments were fixed in 10% buffered formalin with gentle intraluminal pressure to maintain the physiological graft configuration. The middle portion of the paraffin samples were sectioned (5 μm) and stained with hematoxylin/eosin for light microscopic examination (FIGS. 8A-C). Three sections of each graft, taken at 0.5 mm intervals, were analyzed by planimetry by a observer blinded to the treatment group. The cross-sectional areas of the lumen, intima and media was digitized with the use of the Image Analyst program (Automatrix). The ratio of intima to media (I/M) area was calculated.
# vein graft segments = experiment: Ex vivo NOx production from vein graft harvested 3 days after surgery; type: in vivo, New Zealand white rabbits; conditions: vein grafts harvested after 3 days, absence of calcium ionophore
# Experimental: Vein grafts were harvested 3 days after surgery, as described in Example 7. Vein graft segments were incubated in 1 me of Hanks' buffered saline solution (HBSS, Irvine Scientific) containing Ca^2+ (1.0 mM) and L-arginine (100 μM, Sigma) at 37° C. for 2 hours. NOx (nitrate and nitrite) production was measured either in the absence (basal) or presence (stimulated) of calcium ionophore (A23187, 10.0 μM, Sigma). Samples of the medium (80 μL) were collected, and NOx measurement was performed using the Griess reaction facilitated by a commercial calorimetric assay (Cayman Chemical).
# Rat aortic VSMC = experiment: VSMC proliferation assay (XTT); type: cell-based; conditions: 10.0 μM, 30 minutes, then growth medium 0.5% FBS for 48 hours; vs vehicle
# Experimental: Rat aortic VSMC were grown to 50% confluence in 96-well cell culture plates. VSMC were then washed and incubated with serum free DMEM for 48 hours to obtain quiescent nondividing cells. Thereafter, VSMC were treated with vehicle, L-R7 (10.0 μM), or D-R7 (10.0 μM) for 30 minutes. After the treatment, cells were washed, and further incubated with serum containing DMEM (0.5%, FBS). Cells were harvested after 48 hours of incubation. Cell count was performed with commercial cell proliferation assay kit using spectrophotometer (XTT, Boehringer Mannheim). As a negative control, cells treated with vehicle and incubated with DSF were used. As an index of cell proliferation, the OD ratio of each treatment group to negative control group was calculated as an index of cell proliferation.
# [4] = tested on: coronary vessels of transplanted PVG rat donor hearts; experiment: Heart transplant study (graft coronary artery disease, GCAD); type: in vivo; conditions: for % affected vessels / % luminal narrowing / I/M ratio: intracoronary 50 uM, 30 minutes
# Experimental: In this study, PVG rat donor hearts (n=48) were transplanted heterotopically into the abdomen of ACI recipients. Donor hearts received either intracoronary PBS or intracoronary 50 uM (L)-arginine polymer (L-R5 or L-R9) for 30 minutes. (D-arginine polymers were not included in this study.) Each of these groups was further divided into 60 and 90 day study animals (n=6 each). Percent luminal narrowing, intima to media ratio (I/M), and percent affected vessels were determined as described in Example 11, below. Transfection efficiency was determined by infusing biotinylated R5 and R9, as in the preceding studies, and calculating the percentage of biotin positive nuclei divided by total number of nuclei.
# PVG rat donor hearts (n=48) were transplanted heterotopically into the abdomen of ACI recipients. Donor hearts received either intracoronary PBS or intracoronary 50 uM (L)-arginine polymer (L-R5 or L-R9) for 30 minutes. Each group was further divided into 60 and 90 day study animals (n=6 each). Tissue cross sections (5μ) were stained with EVG (Elastica-van Gieson) preparation, and vessels were scored using computerized morphometry for analysis of % luminal narrowing, intima to media ratio (I/M), and % affected vessels. Transfection efficiency was determined by infusing biotinylated R5 and R9, as in preceding examples, and calculating the percentage of biotin positive nuclei divided by total number of nuclei. Results are described in Section IV C, above.
# cell membrane = conditions: previously demonstrated; cited from earlier work
# rat VSMC = experiment: Stimulation of cells with interferon-γ and LPS: NO2 accumulation and dependence on extracellular L-arginine; type: cell-based; conditions: IFN-γ dose
# Experimental: as §1, §2
# Cells were plated at a density of 5×10^3 per well into 96-well plates. […] After 24 hours of incubation, the cells were then treated with a mixture of IFN-γ (100 U/ml) and LPS (100 μg/ml) in the medium containing the same dose of L-arginine for another 24 hours, and nitrite (NO2) accumulation in the culture medium was quantified.
molecule,measurement,setting,value
"N=C(N)NCCC[C@H](N)C(=O)O [L-arginine, reference compound]",elevation of NO production,"cytokine-stimulated VSMC [1]; R7 10 μM pretreatment, free L-arginine up to 1 mM",not observed
same,NO biosynthesis after 5 minutes exposure,cytokine-stimulated VSMC [2],did not significantly increase NO biosynthesis
hepta-D-arginine [D-r7],translocation across cytoplasmic and nuclear membranes,[3],very efficient at translocating across both cytoplasmic and nuclear membranes
same,NO production,"cytokine-stimulated VSMC [1]; 100 μM, 30 minutes",did not increase the NO production
same,myointima formation,vein grafts,substantially less myointima formation
same,intima/media ratio (I/M),vein grafts; 10.0 μM,0.8±0.2
same,intimal area,"vein grafts; 10.0 μM, 30 minutes immersion",1.1±0.4 mm^2
same,reduction of intimal area,"vein grafts; 10.0 μM, vs control",about 35%
same,Basal NOx production,vein graft segments,48±8 nM/mg tissue/hr
same,VSMC proliferation,Rat aortic VSMC,significantly inhibited
penta-L-arginine [R5],NO production,"cytokine-stimulated VSMC [1]; pretreatment 30 minutes, then IFN-γ and LPS, 100 μM extracellular L-arginine",no significant enhancement of NO production
same,myointima formation,vein grafts,not effective in inhibiting myointima formation
same,GCAD compared to PBS controls,[4]; 60 and 90 days,essentially no difference in GCAD
same,% affected vessels,[4]; 60 days,18.9 ± 7%
same,% luminal narrowing,[4]; 60 days,12.6 ± 6.7%
same,I/M ratio,[4]; 60 days,.13 ± .07
same,% affected vessels,[4]; 90 days,18.5 ± 11.9%
same,% luminal narrowing,[4]; 90 days,14.2 ± 12%
same,I/M ratio,[4]; 90 days,.16 ± .14
same,transfection of coronary vessels,[4]; biotinylated oligomer infused,minimal transfection of coronary vessels
same,translocation across the cell membrane,cell membrane,not to translocate across the cell membrane
"IFN-γ: Recombinant rat recombinant interferon-γ (protein, UniProt P01581 23-156, looked up) Interferon gamma: QGTLIESLESLKNYFNSSSMDAMEGKSLLLDIWRNWQKDGNTKILESQIISFYLRLFEVLKDNQAISNNISVIESHLITNFFSNSKAKKDAFMSIAKFEVNNPQIQHKAVNELIRVIHQLSPESSLRKRKRSRC",effect on NO biosynthesis,rat VSMC,dose-dependent
